Data on twelve molecules can be found in PMC4051630, “A Comparison of Protein Kinases Inhibitor Screening Methods Using Both Enzymatic Activity and Binding Affinity Determination” (PLoS ONE, 2014).

Holding throughout (assay): Differential Scanning Fluorimetry (DSF) Tm shift
Format in all cases: binding
On the technique in general: In DSF a fluorescence change marks the thermal transition of the protein.

The target in test [1] is T1, AKT3 Catalytic Domain (Homo sapiens, UniProt Q9Y243).
T1 construct: AKT3 (Q9Y243); CD; His-tag; made in house; host or cells: Escherichia coli
The conditions noted are these: 2 µM protein, 10 µM inhibitor, average of 3 experiments, each in duplicate.

The target in test [2] is T2, CHK2 Catalytic Domain (Homo sapiens, UniProt O96017).
T2 construct: For all of them, we expressed and purified the catalytic domain separately; His-tag; made in house; host or cells: Escherichia coli
The settings on record: 2 µM protein, 10 µM inhibitor, average of 3 experiments, each in duplicate.

Test [3] addresses T3, DMPK Catalytic Domain (Homo sapiens, UniProt Q09013).
T3 construct: For all of them, we expressed and purified the catalytic domain separately; His-tag; made in house; host or cells: Escherichia coli
T3 sequence (Q09013 71-339 limits assumed): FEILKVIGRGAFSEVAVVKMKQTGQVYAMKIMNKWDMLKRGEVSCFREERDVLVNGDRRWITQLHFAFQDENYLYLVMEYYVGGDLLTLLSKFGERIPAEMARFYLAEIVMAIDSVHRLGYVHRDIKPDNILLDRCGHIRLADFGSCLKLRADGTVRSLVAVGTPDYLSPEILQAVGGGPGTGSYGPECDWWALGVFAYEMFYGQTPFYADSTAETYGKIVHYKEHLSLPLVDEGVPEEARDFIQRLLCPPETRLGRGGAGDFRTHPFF
The settings on record: 2 µM protein, 10 µM inhibitor, average of 3 experiments, each in duplicate.

The target of test [4] is T4, FAK2 Catalytic Domain (Homo sapiens, UniProt Q14289).
T4 construct: For all of them, we expressed and purified the catalytic domain separately; His-tag; made in house; host or cells: Escherichia coli
The settings on record: 2 µM protein, 10 µM inhibitor, average of 3 experiments, each in duplicate.

Test [5] has as its target T5, FES Catalytic Domain+SH2 (Homo sapiens, UniProt P07332).
T5 construct: for 8, we also made a longer version containing one or more additional domains; His-tag; made in house; host or cells: Escherichia coli
The conditions noted are these: 2 µM protein, 10 µM inhibitor, average of 3 experiments, each in duplicate.

Test [6] addresses T6, FES Catalytic Domain (Homo sapiens, UniProt P07332).
T6 construct: For all of them, we expressed and purified the catalytic domain separately; His-tag; made in house; host or cells: Escherichia coli
The conditions noted are these: 2 µM protein, 10 µM inhibitor, average of 3 experiments, each in duplicate.

The target of test [7] is T7, PAK4 Catalytic Domain+PBD (Homo sapiens, UniProt O96013).
T7 construct: for 8, we also made a longer version containing one or more additional domains; His-tag; made in house; host or cells: Escherichia coli
The conditions noted are these: 2 µM protein, 10 µM inhibitor, average of 3 experiments, each in duplicate.

The target of test [8] is T8, PAK4 Catalytic Domain (Homo sapiens, UniProt O96013).
T8 construct: For all of them, we expressed and purified the catalytic domain separately; His-tag; made in house; host or cells: Escherichia coli
The settings on record: 2 µM protein, 10 µM inhibitor, average of 3 experiments, each in duplicate.

In test [9] the target is T9, PAK7 Catalytic Domain (Homo sapiens, UniProt Q9P286).
T9 construct: For all of them, we expressed and purified the catalytic domain separately; His-tag; made in house; host or cells: Escherichia coli
The conditions noted are these: 2 µM protein, 10 µM inhibitor, average of 3 experiments, each in duplicate.

Test [10] deals with T10, STK3 Catalytic domain+SARAH (Homo sapiens, UniProt Q13188).
T10 construct: for 8, we also made a longer version containing one or more additional domains; His-tag; made in house; host or cells: Escherichia coli
T10 sequence (Q13188 1-491): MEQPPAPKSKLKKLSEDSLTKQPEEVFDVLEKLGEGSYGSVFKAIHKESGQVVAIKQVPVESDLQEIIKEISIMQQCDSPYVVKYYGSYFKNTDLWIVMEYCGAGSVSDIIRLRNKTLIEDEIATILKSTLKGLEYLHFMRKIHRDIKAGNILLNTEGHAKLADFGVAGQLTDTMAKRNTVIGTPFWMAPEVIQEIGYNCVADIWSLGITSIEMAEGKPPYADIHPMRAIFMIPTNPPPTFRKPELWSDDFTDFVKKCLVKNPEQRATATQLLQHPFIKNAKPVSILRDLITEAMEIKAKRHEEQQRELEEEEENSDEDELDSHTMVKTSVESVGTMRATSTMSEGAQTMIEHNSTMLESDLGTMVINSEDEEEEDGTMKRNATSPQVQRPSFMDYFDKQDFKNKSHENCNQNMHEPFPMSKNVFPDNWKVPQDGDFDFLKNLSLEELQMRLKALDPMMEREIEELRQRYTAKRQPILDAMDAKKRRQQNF
The settings on record: 2 µM protein, 10 µM inhibitor, average of 3 experiments, each in duplicate.

The target of test [11] is T11, STK3 Catalytic Domain (Homo sapiens, UniProt Q13188).
T11 construct: For all of them, we expressed and purified the catalytic domain separately; His-tag; made in house; host or cells: Escherichia coli
T11 sequence (Q13188 27-278 limits assumed): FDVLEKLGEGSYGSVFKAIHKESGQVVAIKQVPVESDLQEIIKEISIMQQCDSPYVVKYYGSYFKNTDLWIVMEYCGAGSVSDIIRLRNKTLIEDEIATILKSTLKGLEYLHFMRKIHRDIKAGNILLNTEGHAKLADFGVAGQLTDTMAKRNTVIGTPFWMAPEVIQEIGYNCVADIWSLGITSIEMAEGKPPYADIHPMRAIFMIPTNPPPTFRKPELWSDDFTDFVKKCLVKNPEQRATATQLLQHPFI
The settings on record: 2 µM protein, 10 µM inhibitor, average of 3 experiments, each in duplicate.

The target in test [12] is T12, CDK2 + Cyclin A (Homo sapiens, UniProt P24941).
T12 construct: CDK2 (P24941); 1–299; His-tag; made in house; host or cells: Escherichia coli
The settings on record: CDK2 + Cyclin A; 2 µM protein, 10 µM inhibitor; average of 3 experiments, each in duplicate.

Test [13] concerns the target SRC Catalytic Domain+SH2+SH3 (Homo sapiens, UniProt P12931). The conditions noted are these: 2 µM protein, 10 µM inhibitor, average of 3 experiments, each in duplicate.

Chain of SRC Catalytic Domain+SH2+SH3 (P12931 84-523 limits assumed): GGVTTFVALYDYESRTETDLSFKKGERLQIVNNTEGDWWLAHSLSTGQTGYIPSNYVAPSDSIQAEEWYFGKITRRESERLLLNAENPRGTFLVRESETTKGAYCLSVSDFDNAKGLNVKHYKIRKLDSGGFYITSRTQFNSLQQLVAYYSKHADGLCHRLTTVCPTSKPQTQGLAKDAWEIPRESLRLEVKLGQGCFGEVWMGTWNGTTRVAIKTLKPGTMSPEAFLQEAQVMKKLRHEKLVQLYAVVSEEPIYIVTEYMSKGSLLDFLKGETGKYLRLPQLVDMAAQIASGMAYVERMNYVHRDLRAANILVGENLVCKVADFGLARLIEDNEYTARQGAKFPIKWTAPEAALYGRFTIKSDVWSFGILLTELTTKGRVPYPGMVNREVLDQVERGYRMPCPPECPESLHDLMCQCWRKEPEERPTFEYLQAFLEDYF
T2 sequence (O96017 220-486 limits assumed): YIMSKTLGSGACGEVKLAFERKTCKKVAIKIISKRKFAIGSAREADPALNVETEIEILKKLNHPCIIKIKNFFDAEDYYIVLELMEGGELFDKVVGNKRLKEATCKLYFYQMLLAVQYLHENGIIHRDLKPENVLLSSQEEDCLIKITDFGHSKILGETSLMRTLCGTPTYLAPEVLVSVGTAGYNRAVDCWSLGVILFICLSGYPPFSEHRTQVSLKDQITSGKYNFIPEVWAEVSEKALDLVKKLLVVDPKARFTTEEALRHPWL
T7 sequence (O96013 whole entry, the tested form may be a part): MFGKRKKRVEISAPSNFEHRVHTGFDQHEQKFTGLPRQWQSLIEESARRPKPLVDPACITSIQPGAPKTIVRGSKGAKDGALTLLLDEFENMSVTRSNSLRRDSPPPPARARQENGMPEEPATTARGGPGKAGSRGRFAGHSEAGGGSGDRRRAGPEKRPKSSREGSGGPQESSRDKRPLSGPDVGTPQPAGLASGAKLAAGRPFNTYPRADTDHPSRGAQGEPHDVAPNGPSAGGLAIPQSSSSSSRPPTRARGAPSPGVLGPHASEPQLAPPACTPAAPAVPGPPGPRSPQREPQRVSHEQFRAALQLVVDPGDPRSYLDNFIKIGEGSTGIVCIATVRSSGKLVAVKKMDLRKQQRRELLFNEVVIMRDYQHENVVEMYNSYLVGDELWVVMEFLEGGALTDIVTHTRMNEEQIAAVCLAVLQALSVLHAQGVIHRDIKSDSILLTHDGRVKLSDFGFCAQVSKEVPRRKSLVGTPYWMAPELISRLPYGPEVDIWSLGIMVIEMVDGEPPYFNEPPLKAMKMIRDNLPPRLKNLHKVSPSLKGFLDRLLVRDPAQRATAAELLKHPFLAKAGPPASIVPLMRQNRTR
T8 sequence (O96013 321-572 limits assumed): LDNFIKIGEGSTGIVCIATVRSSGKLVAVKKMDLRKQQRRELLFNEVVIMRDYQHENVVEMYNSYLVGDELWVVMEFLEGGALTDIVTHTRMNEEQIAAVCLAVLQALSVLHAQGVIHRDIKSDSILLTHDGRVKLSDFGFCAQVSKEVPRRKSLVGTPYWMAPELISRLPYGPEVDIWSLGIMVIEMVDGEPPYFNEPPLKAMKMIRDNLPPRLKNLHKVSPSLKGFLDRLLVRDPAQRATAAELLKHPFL
T4 sequence (Q14289 425-683 limits assumed): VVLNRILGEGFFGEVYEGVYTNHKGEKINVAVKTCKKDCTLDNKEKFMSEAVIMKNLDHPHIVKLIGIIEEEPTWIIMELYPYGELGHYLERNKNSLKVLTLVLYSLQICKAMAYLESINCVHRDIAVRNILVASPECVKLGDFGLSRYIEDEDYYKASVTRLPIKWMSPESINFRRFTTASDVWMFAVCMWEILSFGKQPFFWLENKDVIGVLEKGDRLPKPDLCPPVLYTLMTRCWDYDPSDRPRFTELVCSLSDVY
T9 sequence (Q9P286 449-700 limits assumed): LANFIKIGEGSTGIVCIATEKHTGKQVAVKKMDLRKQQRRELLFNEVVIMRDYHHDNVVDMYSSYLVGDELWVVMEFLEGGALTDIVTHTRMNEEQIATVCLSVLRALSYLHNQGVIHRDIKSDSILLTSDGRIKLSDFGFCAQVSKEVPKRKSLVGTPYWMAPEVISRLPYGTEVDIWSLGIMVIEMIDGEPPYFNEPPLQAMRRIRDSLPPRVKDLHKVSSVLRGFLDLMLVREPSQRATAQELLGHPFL
T6 sequence (P07332 561-822 limits assumed): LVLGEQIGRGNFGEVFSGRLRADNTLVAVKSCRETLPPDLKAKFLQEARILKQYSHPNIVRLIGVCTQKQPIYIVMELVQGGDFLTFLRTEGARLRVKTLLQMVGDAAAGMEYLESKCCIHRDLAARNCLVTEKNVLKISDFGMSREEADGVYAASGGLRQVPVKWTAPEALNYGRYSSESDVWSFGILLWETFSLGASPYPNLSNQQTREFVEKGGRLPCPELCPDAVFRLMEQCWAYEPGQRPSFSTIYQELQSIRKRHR
T1 sequence (Q9Y243 122-479): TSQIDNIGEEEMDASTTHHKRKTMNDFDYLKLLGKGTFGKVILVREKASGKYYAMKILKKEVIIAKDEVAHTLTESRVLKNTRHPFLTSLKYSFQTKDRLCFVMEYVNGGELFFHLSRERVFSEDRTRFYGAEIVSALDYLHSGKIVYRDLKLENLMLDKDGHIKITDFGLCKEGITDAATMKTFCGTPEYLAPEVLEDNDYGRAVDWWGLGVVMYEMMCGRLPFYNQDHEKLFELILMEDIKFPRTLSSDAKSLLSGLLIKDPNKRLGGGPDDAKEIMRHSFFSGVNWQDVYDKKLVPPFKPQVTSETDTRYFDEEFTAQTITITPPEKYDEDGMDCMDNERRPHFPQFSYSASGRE
T5 sequence (P07332 448-822 limits assumed): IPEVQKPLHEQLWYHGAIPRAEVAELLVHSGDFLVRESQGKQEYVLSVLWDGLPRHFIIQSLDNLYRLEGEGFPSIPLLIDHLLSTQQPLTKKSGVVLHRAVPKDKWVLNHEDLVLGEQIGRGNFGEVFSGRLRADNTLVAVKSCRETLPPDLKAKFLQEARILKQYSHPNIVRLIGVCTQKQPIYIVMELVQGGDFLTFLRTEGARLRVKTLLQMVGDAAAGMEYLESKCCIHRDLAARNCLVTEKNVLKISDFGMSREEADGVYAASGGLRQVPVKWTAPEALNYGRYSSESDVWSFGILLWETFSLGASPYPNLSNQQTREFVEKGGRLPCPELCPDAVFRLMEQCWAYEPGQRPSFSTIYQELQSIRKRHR

For `CC[C@@H](CO)Nc1nc(NCc2ccccc2)c2ncn(C(C)C)c2n1` (single isomer, unassigned) [Roscovitine, (S)-Isomer], the “Melting temperature (Tm) shift” value in [1] came to 0.0 degrees Celcius; in test [2], 0.6 degrees Celcius; in [3] it was 0.3 degrees Celcius; in test [4] it was 0.2 degrees Celcius; in [5] it was 0.9 degrees Celcius; in [6] it was 1.2 degrees Celcius. The “Melting temperature (Tm) shift” value in test [7] came out at 2.6 degrees Celcius; in test [8] it was 1.4 degrees Celcius; in test [9] it was 0.7 degrees Celcius; in test [10], 0.0 degrees Celcius; in test [11] it was 0.0 degrees Celcius.
Consider `O=C1NC(=O)c2c1c1c3ccccc3[nH]c1c1[nH]c3ccccc3c21` [Arcyriaflavin A, Synthetic, Arcyriaflavin A], for which the “Melting temperature (Tm) shift” value in test [1] was found to be 0.0 degrees Celcius; in test [7], 0.5 degrees Celcius; in test [8], 0.2 degrees Celcius.
For the molecule `CN(C)c1nc2c(Br)c(Br)c(Br)c(Br)c2[nH]1` [Casein Kinase II Inhibitor II, DMAT], the “Melting temperature (Tm) shift” value in test [12] is recorded as 0.5 degrees Celcius; in [2], 0.3 degrees Celcius; in test [3], 0.4 degrees Celcius; in test [4], 3.2 degrees Celcius; in test [7], 0.3 degrees Celcius; in [8], 0.2 degrees Celcius. For the same molecule, the “Melting temperature (Tm) shift” value in test [9] is recorded as 4.1 degrees Celcius; in [13], 0.9 degrees Celcius; in test [10], 0.4 degrees Celcius; in test [11] it was 0.3 degrees Celcius.
For `Brc1c(Br)c(Br)c2n[nH]nc2c1Br` [Casein Kinase II Inhibitor I], the “Melting temperature (Tm) shift” value is reported as 0.1 degrees Celcius in [1]; 2.2 degrees Celcius in test [2]; 0.6 degrees Celcius in [3]; 0.1 degrees Celcius in test [4]; 0.8 degrees Celcius in [5]; 0.0 degrees Celcius in [6]. Also, the “Melting temperature (Tm) shift” value in test [7] is recorded as 0.9 degrees Celcius; in test [8], 0.2 degrees Celcius; in [13], 0.2 degrees Celcius; in [10], 0.4 degrees Celcius; in test [11] it was 1.1 degrees Celcius.
Turning to `O=c1c2ccccc2[nH]c(=S)n1CCN1CCC(=C(c2ccc(F)cc2)c2ccc(F)cc2)CC1` [Diacylglycerol Kinase Inhibitor II], the “Melting temperature (Tm) shift” value was 0.7 degrees Celcius in test [6] and 0.2 degrees Celcius in test [7].
On to `CC#CC(=O)Nc1cc2c(Nc3ccc(F)c(Cl)c3)ncnc2cn1` [EGFR/ErbB-2/ErbB-4 Inhibitor], for which the “Melting temperature (Tm) shift” value in test [1] is recorded as 0.0 degrees Celcius; in test [2] it was 0.3 degrees Celcius; in [6], 0.0 degrees Celcius; in test [7] it was 0.1 degrees Celcius; in [9] it was 0.0 degrees Celcius; in test [13] it was 0.0 degrees Celcius. Moreover, the “Melting temperature (Tm) shift” value in [11] amounted to 0.2 degrees Celcius.
For the molecule `O=C1c2ccccc2-[n+]2ccc3c([nH]c4ccccc43)c21` [Fascaplysin, Synthetic, Fascaplysin], the “Melting temperature (Tm) shift” value in test [1] is 0.1 degrees Celcius; in test [3] it was 0.4 degrees Celcius; in test [5], 0.0 degrees Celcius; in [6] it was 0.2 degrees Celcius.
For the molecule `CC(=O)O/N=C1/C(=C2/C(=O)Nc3cc(Br)ccc32)Nc2ccccc21` [GSK-3 Inhibitor X], the “Melting temperature (Tm) shift” value in test [1] was 0.1 degrees Celcius; in [3], 0.5 degrees Celcius; in [5], 0.0 degrees Celcius; in [6], 0.4 degrees Celcius; in [7], 1.0 degrees Celcius; in [8], 0.6 degrees Celcius. Further, the results for the “Melting temperature (Tm) shift” value in test [9] and in test [10] were 0.1 degrees Celcius and 0.5 degrees Celcius, respectively.
`COc1ccc2c(c1)c1c3c(c4c5ccccc5n(C)c4c1n2CC(O)CN(C)C)C(=O)NC3=O.Cl` (stereo not drawn) [Gö 7874, Hydrochloride]: the “Melting temperature (Tm) shift” value in test [1] stood at 0.2 degrees Celcius; in test [12], 0.2 degrees Celcius; in test [2], 1.1 degrees Celcius; in [3] it was 0.2 degrees Celcius; in test [4], 0.7 degrees Celcius; in [5], 0.0 degrees Celcius. The “Melting temperature (Tm) shift” value in test [6] is 0.3 degrees Celcius; in test [7], 0.1 degrees Celcius; in test [9], 0.1 degrees Celcius; in test [10], 2.2 degrees Celcius; in test [11], 1.4 degrees Celcius.
On to `O=C1Nc2ccc(I)cc2/C1=C1/Nc2ccccc2/C1=N\O` [Indirubin-3ʹ′-monoxime, 5-Iodo-, Indirubin-3′ -monoxime, 5-Iodo-], for which the “Melting temperature (Tm) shift” value in [7] came to 2.3 degrees Celcius; in test [8] it was 0.3 degrees Celcius; in test [10] it was 5.6 degrees Celcius; in [11] it was 1.2 degrees Celcius.
For `O=C1C(Cl)=C(N2C(=O)CCC2=O)C(=O)c2ccccc21` [MEK Inhibitor II], the “Melting temperature (Tm) shift” value worked out at 0.3 degrees Celcius in [1]; 0.1 degrees Celcius in test [12]; 0.0 degrees Celcius in [2]; 0.0 degrees Celcius in test [5]; 0.0 degrees Celcius in test [6]; 0.0 degrees Celcius in test [8]. Further, the “Melting temperature (Tm) shift” value in test [9] amounted to 0.0 degrees Celcius; in test [13] it was 0.0 degrees Celcius; in [10] it was 0.1 degrees Celcius.
As to “Akt Inhibitor VIII, Isozyme-Selective, Akti-1/2”, the “Melting temperature (Tm) shift” value stood at 0.2 degrees Celcius in [12], 0.4 degrees Celcius in test [2], 0.1 degrees Celcius in test [4] and 0.0 degrees Celcius in test [9].
